Laboratory results reported in patent publication US20100099762A1, “COMBINATION THERAPY” (THE MENTAL HEALTH RESEARCH INSTITUTE OF VICTORIA, priority 2006, published 2010).
Marks after values point to notes of the source that are not given here.

What was measured:
[1] = tested on: schizophrenia; experiment: Randomised double blind multicentre placebo controlled trial of NAC in combination with an antipsychotic agent in schizophrenia; type: in vivo, human
From the text: There is preclinical evidence of a reduction in antioxidant defences in schizophrenia, particularly a reduction in glutathione, which is a primary endogenous antioxidant defence. N-acetyl cysteine (NAC) is a bioavailable precursor of glutathione. This Example is a randomised double blind multicentre placebo controlled trial of the use of NAC in combination with an antipsychotic agent in the treatment of schizophrenia. A total of 140 individuals were randomised to receive 2 g daily of NAC in two divided doses, or placebo, together with their normal dosage of antipsychotic agent.
Participants were assigned randomly and consecutively to treatment with NAC or placebo in a double blind fashion. The randomisation log was generated by an independent individual using the traditional coin tossing method. The investigators and clinicians remained blind until data analysis was completed. The person generating the randomisation schedule was not involved in participant interviews, either for participant eligibility or outcome measurements.
All participants remained on their usual antipsychotic medication for the duration of the trial. The dose of the primary therapy was monitored. Participants were recruited through advertisements, referral by case clinicians and through database screening. All participants provided written informed consent as part of complying with the protocol.
All randomised participants received two NAC (500 mg) capsules twice daily, to a total dose of 2 g daily, or matching placebo capsules. Human dosing can be up to 5 g/day without adverse effects (Louwerse E. S. et al., 1995). A daily dose that is within the range of efficacy in published clinical trials (Adair J. C. et al., 2001, Van Schooten F. J. et al., 2002, and Behr J, et al., 2002) was selected. Once per day dosing is desirable in the drug treatment of schizophrenia, where medication compliance is known to be a challenge in management. However, steady state plasma levels cannot be achieved with a once daily oral dose of NAC as the plasma half-life is only 2-3 hours (Holdiness M. R., 1991 and Kelly G. S., 1998). While a twice-daily (BID) dosing regimen would also not be expected to achieve steady state plasma levels, dose intervals beyond BID were considered to markedly increase the risk of non-compliance in this population.
To be included, the patients were required to meet Diagnostic and Statistical Manual of Mental Disorders, fourth edition (DSM-IV) (Association AP, 1994) criteria for schizophrenia and have a PANSS total score of ≧55, or at least two items in the positive and/or negative items being >3, or have a CGI-S≧3. They needed to have the capacity to consent to the study, and be aged between 18 and 65. Both inpatients and outpatients were eligible. Participants needed to be currently taking an antipsychotic agent and to be utilising effective contraception if female and of childbearing age. Exclusion criteria included patients with abnormal renal, hepatic, thyroid or haematological findings, patients with a systemic medical disorder including asthma, allergies or any history of bronchospasm, respiratory insufficiency and recent gastrointestinal ulcers and females who were positive on pregnancy screening testing at baseline. Participants who were taking a mood stabiliser (e.g. lithium, valproate and carbamazepine) were excluded as were those currently taking drugs that are known to prevent GSH depletion (500+mg of NAC/day, 200+ug of selenium/day or 500+IU of Vitamin E/day).
Withdrawal from the trial occurred if participants ceased taking their trial medication for seven consecutive days, or ceased effective contraception, or became pregnant. A change in primary antipsychotic from one medication to another required participants to be withdrawn from the study. Similarly, the addition of a mood stabiliser required withdrawal of the participant. Dose changes to existing medications were not an exclusion criterion, and this was monitored. […]

[2] = oral NAC; cited from earlier work
[3] = score at week 24, end of treatment
[4] = washout, week 28, LOCF ANCOVA with interaction term
[5] = week 8, LOCF ANCOVA, Placebo-NAC
[6] = week 24, LOCF ANCOVA, Placebo-NAC
[7] = week 24 to washout, week 28, LOCF ANCOVA
[8] = week 24 to washout, week 28, LOCF ANCOVA with interaction term

CC(=O)N[C@@H](CS)C(=O)O [NAC, N-acetyl cysteine]
PANSS Negative: NAC Mean Week 24 (SD) [1, 3]: 13.7 (4.9)
PANSS Positive: NAC Mean Week 24 (SD) [1, 3]: 14.5 (5.6)
PANSS Total: NAC Mean Week 24 (SD) [1, 3]: 57.0 (16.1)
SAS: NAC Mean Week 24 (SD) [1, 3]: 1.6 (1.3)
SOFAS: NAC Mean Week 24 (SD) [1, 3]: 58.8 (12.7)
Onset of clinical benefit on CGI-I (scores significantly better than placebo) ([1]; time from commencing treatment, Fisher's categorical analysis): ≤ 4 weeks
Onset of clinical benefit on CGI-S (scores significantly better than placebo) ([1]; time from commencing treatment, MMRM): ≤ 2 weeks
AIMS: LS Mean Difference (95% CI) between placebo and NAC at post-treatment discontinuation ([1]; washout, week 28, LOCF ANCOVA): −0.40 (−1.41, 0.61)
BAS: LS Mean Difference (95% CI) between placebo and NAC at post-treatment discontinuation ([1]; washout, week 28, LOCF ANCOVA): −0.31 (−0.91, 0.29)^‡
GAF: LS Mean Difference (95% CI) between placebo and NAC at post-treatment discontinuation ([1]; washout, week 28, LOCF ANCOVA): 0.61 (−3.5, 4.72)^‡
PANSS Positive: LS Mean Difference (95% CI) between placebo and NAC at post-treatment discontinuation ([1]; washout, week 28, LOCF ANCOVA): 0.75 (−0.72, 2.22)
SAS: LS Mean Difference (95% CI) between placebo and NAC at post-treatment discontinuation ([1]; washout, week 28, LOCF ANCOVA): −0.52 (−0.99, −0.05)*
SOFAS: LS Mean Difference (95% CI) between placebo and NAC at post-treatment discontinuation ([1]; washout, week 28, LOCF ANCOVA): −1.17 (−4.89, 2.55)
PANSS General: LS Mean Difference (95% CI) between placebo and NAC at post-treatment discontinuation [1, 4]: −0.85 (−3.45, 1.75)^‡
PANSS Negative: LS Mean Difference (95% CI) between placebo and NAC at post-treatment discontinuation [1, 4]: −1.58 (−3.17, 0.00)^‡
PANSS Total: LS Mean Difference (95% CI) between placebo and NAC at post-treatment discontinuation [1, 4]: −2.70 (−6.85, 1.45)^‡
AIMS: Between Placebo-NAC differences Week 8 LS Mean Difference (95% CI) [1, 5]: −0.31 (−1.0, 0.41)
BAS: Between Placebo-NAC differences Week 8 LS Mean Difference (95% CI) [1, 5]: 0.20 (−0.24, 0.64)
GAF: Between Placebo-NAC differences Week 8 LS Mean Difference (95% CI) [1, 5]: −0.51 (−3.7, 2.7)
PANSS General: Between Placebo-NAC differences Week 8 LS Mean Difference (95% CI) [1, 5]: −1.5 (−3.4, 0.34)
PANSS Negative: Between Placebo-NAC differences Week 8 LS Mean Difference (95% CI) [1, 5]: −0.49 (−1.8, 0.80)
PANSS Positive: Between Placebo-NAC differences Week 8 LS Mean Difference (95% CI) [1, 5]: −0.25 (−1.5, 0.98)
PANSS Total: Between Placebo-NAC differences Week 8 LS Mean Difference (95% CI) [1, 5]: −2.6 (−6.1, 0.80)
SAS: Between Placebo-NAC differences Week 8 LS Mean Difference (95% CI) [1, 5]: −0.06 (−0.39, 0.26)
SOFAS: Between Placebo-NAC differences Week 8 LS Mean Difference (95% CI) [1, 5]: −0.20 (−3.9, 3.5)
AIMS: Between Placebo-NAC differences Week 24 LS Mean Difference (95% CI) [1, 6]: 0.12 (−0.65, 0.89)
BAS: Between Placebo-NAC differences Week 24 LS Mean Difference (95% CI) [1, 6]: 0.54 (0.08, 1.00)*
GAF: Between Placebo-NAC differences Week 24 LS Mean Difference (95% CI) [1, 6]: −2.6 (−6.6, 1.3)
PANSS Positive: Between Placebo-NAC differences Week 24 LS Mean Difference (95% CI) [1, 6]: 0.50 (−1.1, 2.1)
SAS: Between Placebo-NAC differences Week 24 LS Mean Difference (95% CI) [1, 6]: 0.11 (−0.27, 0.50)
SOFAS: Between Placebo-NAC differences Week 24 LS Mean Difference (95% CI) [1, 6]: −0.92 (−5.67, 3.82)
AIMS: NAC Mean Overall Change (95% CI) at post-treatment discontinuation [1, 7]: −0.27 (−1.0, 0.50)
BAS: NAC Mean Overall Change (95% CI) at post-treatment discontinuation [1, 7]: 0.42 (−0.02, 0.86)
CGI-S: NAC Mean Overall Change (95% CI) at post-treatment discontinuation [1, 7]: −0.17 (−0.41, 0.08)
GAF: NAC Mean Overall Change (95% CI) at post-treatment discontinuation [1, 7]: 0.37 (−2.7, 3.5)
PANSS Positive: NAC Mean Overall Change (95% CI) at post-treatment discontinuation [1, 7]: −0.96 (−2.0, 0.12)
SAS: NAC Mean Overall Change (95% CI) at post-treatment discontinuation [1, 7]: 0.30 (−0.06, 0.65)
SOFAS: NAC Mean Overall Change (95% CI) at post-treatment discontinuation [1, 7]: −0.79 (−3.8, 2.2)
PANSS General: NAC Mean Overall Change (95% CI) at post-treatment discontinuation [1, 8]: 0.18 (−1.7, 2.1)
PANSS Negative: NAC Mean Overall Change (95% CI) at post-treatment discontinuation [1, 8]: 0.60 (−0.55, 1.7)
PANSS Total: NAC Mean Overall Change (95% CI) at post-treatment discontinuation [1, 8]: 0.56 (−2.4, 3.6)
Proportion of patients clinically improved on the CGI-I scale referred to baseline ([1]; week 28, after washout, NAC versus placebo): remained significantly greater
More subjects in the NAC treatment group showing improvement on CGI-I compared to placebo ([1]; weeks 12, 16 and 24): ≈ 25%
Plasma half-life [2]: 2 to 3 h
